Experimental data as given in patent US10117916B2, “Peptides and combination of peptides for use in immunotherapy against CLL and other cancers” (immatics biotechnologies GmbH, priority 2015, dated 2018).

Tests used:
CD8+ T cells = test: In vitro immunogenicity: T-cell priming with aAPCs loaded with peptide/MHC and anti-CD28, pMHC multimer readout; type: cell-based, human; conditions: CD8+ T cells of healthy donors, three stimulation cycles; for Wells positive [%]: HLA-A*02 restricted peptides; for wells (in vitro immunogenicity, positive wells): HLA class I peptides
Protocol: In an aspect, the peptides are pre-screened for immunogenicity before being included in the warehouse. By way of example, and not limitation, the immunogenicity of the peptides included in the warehouse is determined by a method comprising in vitro T-cell priming through repeated stimulations of CD8+ T cells from healthy donors with artificial antigen presenting cells loaded with peptide/MHC complexes and anti-CD28 antibody.
CD8+ T cells were primed using artificial APCs coated with anti-CD28 mAb and HLA-A*02 in complex with SeqID No 1 peptide (FIG. 3C, left panel), SeqID No 5 peptide (FIG. 3D left panel), SeqID No 32 peptide (FIG. 3E, left panel) and SeqID No 220 peptide (FIG. 3F, left panel), respectively. After three cycles of stimulation, the detection of peptide-reactive cells was performed by 2D multimer staining with A*02/SeqID No 1 (FIG. 3C), A*02/SeqID No 5 (FIG. 3D), A*02/SeqID No 32 (FIG. 3E) or A*02/SeqID No 220 (FIG. 3F). Right panels (FIGS. 3C, 3D, 3E and 3F) show control staining of cells stimulated with irrelevant A*02/peptide complexes. Viable singlet cells were gated for CD8+ lymphocytes. Boolean gates helped excluding false-positive events detected with multimers specific for different peptides.
In order to obtain information regarding the immunogenicity of the TUMAPs of the present invention, the inventors performed investigations using an in vitro T-cell priming assay based on repeated stimulations of CD8+ T cells with artificial antigen presenting cells (aAPCs) loaded with peptide/MHC complexes and anti-CD28 antibody.
In order to perform in vitro stimulations by artificial antigen presenting cells loaded with peptide-MHC complex (pMHC) and anti-CD28 antibody, the inventors first isolated CD8+ T cells from fresh HLA-A*02 leukapheresis products via positive selection using CD8 microbeads (Miltenyi Biotec, Bergisch-Gladbach, Germany) of healthy donors obtained from the University clinics Mannheim, Germany, after informed consent.
PBMCs and isolated CD8+ lymphocytes were incubated in T-cell medium (TCM) until use consisting of RPMI-Glutamax (Invitrogen, Karlsruhe, Germany) supplemented with 10% heat inactivated human AB serum (PAN-Biotech, Aidenbach, Germany), 100 U/ml Penicillin/100 μg/ml Streptomycin (Cambrex, Cologne, Germany), 1 mM sodium pyruvate (CC Pro, Oberdorla, Germany), 20 μg/ml Gentamycin (Cambrex). 2.5 ng/ml IL-7 (PromoCell, Heidelberg, Germany) and 10 U/ml IL-2 (Novartis Pharma, Nirnberg, Germany) were also added to the TCM at this step.
Generation of pMHC/anti-CD28 coated beads, T-cell stimulations and readout was performed in a highly defined in vitro system using four different pMHC molecules per stimulation condition and 8 different pMHC molecules per readout condition.
The purified co-stimulatory mouse IgG2a anti human CD28 Ab 9.3 (Jung et al., 1987) was chemically biotinylated using Sulfo-N-hydroxysuccinimidobiotin as recommended by the manufacturer (Perbio, Bonn, Germany). Beads used were 5.6 μm diameter streptavidin coated polystyrene particles (Bangs Laboratories, Illinois, USA).
800.000 beads/200 μl were coated in 96-well plates in the presence of 4×12.5 ng different biotin-pMHC, washed and 600 ng biotin anti-CD28 were added subsequently in a volume of 200 μl. Stimulations were initiated in 96-well plates by co-incubating 1×10^6 CD8+ T cells with 2×10^5 washed coated beads in 200 μl TCM supplemented with 5 ng/ml IL-12 (PromoCell) for 3 days at 37° C. Half of the medium was then exchanged by fresh TCM supplemented with 80 U/ml IL-2 and incubating was continued for 4 days at 37° C. This stimulation cycle was performed for a total of three times. For the pMHC multimer readout using 8 different pMHC molecules per condition, a two-dimensional combinatorial coding approach was used as previously described (Andersen et al., 2012) with minor modifications encompassing coupling to 5 different fluorochromes.

HLA-A*02:01 = HLA-A*02:01 (Homo sapiens, UniProt P04439, D140Y/D185E/D98H/E176V/E277Q/G131W/G231S/I119V/I121R/I166T/I218V/L300P/L318F/N151K/N90K/P208A/P217A/Q86G/Q94H/R138H/R169H/T345S); test: MHC binding assay: UV-ligand exchange with β2m ELISA (peptide exchange yield); conditions: MHC class I binding score; binding to HLA-A*02:01 ranged by peptide exchange yield (UV-ligand exchange, β2m ELISA)
How it was run: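 Binding capacity is expressed as the yield of UV-mediated ligand exchange, reflecting how well each peptide stabilizes peptide-receptive MHC. Stabilized complexes are read out by anti-β2m HRP ELISA (450 nm) after streptavidin capture, with refolded MLA-001 monomer standards for quantitation.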

Row | Substance | Wells positive [%] (CD8+ T cells) | Peptide Exchange (HLA-A*02:01) | wells (in vitro immunogenicity, positive wells) (CD8+ T cells)
1 | 202 (YVDDVFLRV; listed as Homo sapiens) [compound 202] | ″++″ (20%-49% = ++) | ″++++″ (≥75% = ++++) | –
2 | 69 (GLHQREIFL; listed as Homo sapiens) [compound 69] | ″+″ (<20% = +) | ″+++″ (≥50 = +++) | –
3 | 380 (YLDRKLLTL; listed as Homo sapiens) [compound 380] | ″++++″ (> = 70% = ++++) | ″+++″ (≥50 = +++) | –
4 | 323 (SLDLFNCEV; listed as Homo sapiens) [compound 323] | ″+″ (<20% = +) | ″++++″ (≥75% = ++++) | –
5 | 1 (AIPPSFASIFL; listed as Homo sapiens) [compound 1] | ″+++″ (50%-69% = +++) | ″+++″ (≥50 = +++) | –
6 | 54 (FLYPFPLALF; listed as Homo sapiens) [compound 54] | ″+″ (<20% = +) | ″+++″ (≥50 = +++) | –
7 | 427 (LLYDAVHIV; listed as Homo sapiens) [compound 427] | – | – | ++ (20%-49% = ++)
8 | 86 (HLYPGAVTI; listed as Homo sapiens) [compound 86] | ″+″ (<20% = +) | ″+++″ (≥50 = +++) | –
9 | 5 (ALIFKIASA; listed as Homo sapiens) [compound 5] | ″+++″ (50%-69% = +++) | ″+++″ (≥50 = +++) | –
10 | 154 (SLLAELHVLTV; listed as Homo sapiens) [compound 154] | ″+″ (<20% = +) | ″++++″ (≥75% = ++++) | –
11 | 201 (YQLELHGIEL; listed as Homo sapiens) [compound 201] | ″+″ (<20% = +) | ″++++″ (≥75% = ++++) | –
12 | 101 (ILVVIEPLL; listed as Homo sapiens) [compound 101] | ″+″ (<20% = +) | ″++++″ (≥75% = ++++) | –
13 | 220 (ALPEILFAKV; listed as Homo sapiens) [compound 220] | ″++″ (20%-49% = ++) | ″+++″ (≥50 = +++) | –
14 | 26 (AVLLVLPLV; listed as Homo sapiens) [compound 26] | ″+″ (<20% = +) | ″+++″ (≥50 = +++) | –
15 | 2 (ALHRPDVYL; listed as Homo sapiens) [compound 2] | ″+″ (<20% = +) | ″+++″ (≥50 = +++) | –
16 | 192 (YIQEYLTLL; listed as Homo sapiens) [compound 192] | ″+″ (<20% = +) | ″+++″ (≥50 = +++) | –
17 | 57 (GLSEISLRL; listed as Homo sapiens) [compound 57] | ″+″ (<20% = +) | ″++++″ (≥75% = ++++) | –
18 | 100 (ILNNEVFAI; listed as Homo sapiens) [compound 100] | ″++″ (20%-49% = ++) | ″+++″ (≥50 = +++) | –
19 | 102 (IQDRAVPSL; listed as Homo sapiens) [compound 102] | ″+″ (<20% = +) | ″++″ (≥20% = ++) | –

Row | Substance | Wells positive [%] (CD8+ T cells) | Peptide Exchange (HLA-A*02:01) | wells (in vitro immunogenicity, positive wells) (CD8+ T cells)
20 | 281 (NLLDDRGMTAL; listed as Homo sapiens) [compound 281] | ″+″ (<20% = +) | ″+++″ (≥50 = +++) | –
21 | 282 (LLRDGIELV; listed as Homo sapiens) [compound 282] | ″++″ (20%-49% = ++) | ″+++″ (≥50 = +++) | –
22 | 332 (VMIQHVENL; listed as Homo sapiens) [compound 332] | ″+″ (<20% = +) | ″+++″ (≥50 = +++) | –
23 | 521 (YLYGQTTTYL; listed as Homo sapiens) [compound 521] | – | – | ++ (20%-49% = ++)
24 | 322 (SLASIHVPL; listed as Homo sapiens) [compound 322] | ″+″ (<20% = +) | ″+++″ (≥50 = +++) | –
25 | 320 (TIAPVTVAV; listed as Homo sapiens) [compound 320] | ″+″ (<20% = +) | ″++++″ (≥75% = ++++) | –
26 | 112 (KTLDVDATYEI; listed as Homo sapiens) [compound 112] | ″+″ (<20% = +) | ″+++″ (≥50 = +++) | –
27 | 329 (VLMDGSVKL; listed as Homo sapiens) [compound 329] | ″+++″ (50%-69% = +++) | ″++++″ (≥75% = ++++) | –
28 | 56 (FVFEAPYTL; listed as Homo sapiens) [compound 56] | ″++″ (20%-49% = ++) | ″+++″ (≥50 = +++) | –
29 | 200 (YMFEEVPIVI; listed as Homo sapiens) [compound 200] | ″+″ (<20% = +) | ″++++″ (≥75% = ++++) | –
30 | 81 (WLVGQEFEL; listed as Homo sapiens) [compound 81] | ″+″ (<20% = +) | ″+++″ (≥50 = +++) | –
31 | 240 (ILARDILEI; listed as Homo sapiens) [compound 240] | ″+″ (<20% = +) | ″+++″ (≥50 = +++) | –
32 | 17 (ALTKTNLQL; listed as Homo sapiens) [compound 17] | ″+″ (<20% = +) | ″+++″ (≥50 = +++) | –
33 | 96 (ILIDKTSFV; listed as Homo sapiens) [compound 96] | ″+″ (<20% = +) | ″+++″ (≥50 = +++) | –
34 | 197 (YLQEVPILTL; listed as Homo sapiens) [compound 197] | ″+″ (<20% = +) | ″++++″ (≥75% = ++++) | –
35 | 114 (LIPEGPPQV; listed as Homo sapiens) [compound 114] | ″+″ (<20% = +) | ″+++″ (≥50 = +++) | –
36 | 49 (FLTDLFAQL; listed as Homo sapiens) [compound 49] | ″++″ (20%-49% = ++) | ″++++″ (≥75% = ++++) | –
37 | 307 (LLLTKPTEA; listed as Homo sapiens) [compound 307] | ″+″ (<20% = +) | ″+++″ (≥50 = +++) | –
38 | 32 (FIDKFTPPV; listed as Homo sapiens) [compound 32] | ″++++″ (> = 70% = ++++) | ″++++″ (≥75% = ++++) | –
